Source: doi:10.1101/850305v1 (biorxiv, 2019)
In brackets after ≈: the same amount, converted by molar mass. Where two headings read alike, the source gives them in different places. Values belong to the compound of their own block, whether it stands above or below them.

Key:
E. coli LpxA [1] = molecular target: T1, E. coli LpxA (Escherichia coli, UniProt P0A722); experiment: SPE-MS detection of LpxA product; type: biochemical
T1 sequence (P0A722 1-262): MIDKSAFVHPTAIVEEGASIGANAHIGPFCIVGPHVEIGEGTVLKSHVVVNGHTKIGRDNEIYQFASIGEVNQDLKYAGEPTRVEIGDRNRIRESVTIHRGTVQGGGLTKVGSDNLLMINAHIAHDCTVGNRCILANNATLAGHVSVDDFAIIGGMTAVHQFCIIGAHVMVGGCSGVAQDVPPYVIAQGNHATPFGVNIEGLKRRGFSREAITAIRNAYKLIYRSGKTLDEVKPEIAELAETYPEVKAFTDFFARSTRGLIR

VECO2526 E. coli ΔtolC = experiment: microbe, parasite or virus in culture; conditions: Escherichia coli
CDY0154 E. coli Δ9efflux = experiment: microbe, parasite or virus in culture; conditions: Escherichia coli
E. coli LpxA [2] = molecular target: T1, E. coli LpxA; experiment: SPE-MS detection of LpxA product; type: biochemical; remark: listed apart in the source
E. coli LpxA [3] = molecular target: T1, E. coli LpxA; experiment: SPR; type: binding
MG1655 E. coli K-12 = experiment: microbe, parasite or virus in culture; conditions: Escherichia coli
[4] = system: ATCC 25922 E. coli clinical isolates; experiment: microbe, parasite or virus in culture; conditions: Escherichia coli
E. coli LpxA [5] = molecular target: T1, E. coli LpxA; experiment: SPE-MS detection of LpxA product; type: biochemical; remark: listed apart in the source
E. coli LpxA [6] = molecular target: T1, E. coli LpxA; experiment: SPR; type: binding; remark: listed apart in the source
[7] = system: Escherichia coli TUP0115 ΔtolC pLacZα; experiment: microbe, parasite or virus in culture; conditions: read-out: MIC

IC50 (E. coli LpxA [1]): 148 µM
Compound: Cc1ccnc(-c2cc(C(=O)N3CCOC[C@H]3C(C)C)[nH]n2)c1 [compound 4]

IC50 (E. coli LpxA [1]): > 250 µM
Compound: Cc1ccnc(-c2cc(C(=O)N3CCOCC3)[nH]n2)c1 [compound 3]

IC50 (E. coli LpxA [1]): 171 µM
Compound: Cc1ccnc(-c2cc(C(=O)N3CCOC[C@@H]3Cc3ccccc3)[nH]n2)c1 [compound 12]

MIC (VECO2526 E. coli ΔtolC; read-out: MIC CHIR-090): 0.015 mg/L (≈ 0.0343 µM)
MIC (CDY0154 E. coli Δ9efflux; read-out: MIC CHIR-090): 0.075 mg/L (≈ 0.171 µM)
Compound: C[C@@H](O)[C@H](NC(=O)c1ccc(C#Cc2ccc(CN3CCOCC3)cc2)cc1)C(=O)NO [CHIR-090]

IC50 (E. coli LpxA [2]): 4.8 µM
Kd (E. coli LpxA [3]): 110 µM
MIC (MG1655 E. coli K-12; MG1655, read-out: MIC compound 2): > 128 mg/L
MIC (VECO2526 E. coli ΔtolC; read-out: MIC compound 2): 2 mg/L (≈ 5.52 µM)
MIC (CDY0154 E. coli Δ9efflux; read-out: MIC compound 2): 2 mg/L (≈ 5.52 µM)
MIC ([4]; ATCC25922, read-out: MIC compound 2): > 128 mg/L
Compound: Cc1ccnc(-c2cc(C(=O)N3CCOC[C@H]3Cc3ccccc3)[nH]n2)c1 [compound 2]

IC50 (E. coli LpxA [1]): 2.9 µM
Compound: Cc1ccnc(-c2cc(C(=O)N3CCOC[C@H]3Cc3ccccc3Cl)[nH]n2)c1 [compound 7]

IC50 (E. coli LpxA [5]): 0.6 µM
Compound: COc1cccc(Cl)c1C[C@@H]1COCCN1C(=O)c1cc(-c2cc(C)c(N)cn2)n[nH]1 [compound 13]

IC50 (E. coli LpxA [1]): 2.5 µM
Compound: COc1cccc(F)c1C[C@@H]1COCCN1C(=O)c1cc(-c2cc(C)ccn2)n[nH]1 [compound 9]

IC50 (E. coli LpxA [5]): 11 µM
Compound: COc1ccccc1C[C@@H]1COCCN1C(=O)c1cc(-c2cc(C)ccn2)n[nH]1 [compound 8]

IC50 (E. coli LpxA [5]): 3 µM
Compound: Cc1ccnc(-c2cc(C(=O)N3CCOC[C@H]3Cc3ccccc3F)[nH]n2)c1 [compound 6]

IC50 (E. coli LpxA [1]): 0.5 µM
Compound: COc1cccc(Cl)c1C[C@@H]1COCCN1C(=O)c1cc(-c2cc(C)ccn2)n[nH]1 [compound 11]

IC50 (E. coli LpxA [1]): 86 µM
Compound: Cc1ccnc(-c2cc(C(=O)N3CCOC[C@H]3Cc3ccccn3)[nH]n2)c1 [compound 5]

IC50 (E. coli LpxA [1]): 1.4 µM
Kd (E. coli LpxA [6]): 0.1 µM
MIC (MG1655 E. coli K-12; MG1655, read-out: MIC compound 1): > 16 mg/L
MIC (VECO2526 E. coli ΔtolC; read-out: MIC compound 1): 0.5 mg/L (≈ 1.25 µM)
MIC (CDY0154 E. coli Δ9efflux; read-out: MIC compound 1): 0.5 mg/L (≈ 1.25 µM)
MIC ([4]; ATCC25922, read-out: MIC compound 1): > 16 mg/L
MIC [7]: 0.5 mg/L (≈ 1.25 µM)
Compound: COc1ccc(C(=O)CN2C(=O)NC(c3ccccc3)(c3ccccc3)C2=O)cc1 [compound 1]
